# Measured values taken from patent publication US20070128217A1 (priority 2003, published 2007).
# Experiments:
# [1] = system: rabbit serum obtained by immunizing a rabbit with the SARS-CoV strain Frankfurt 1; assay type: binding; design: Binding of a rabbit serum to linear peptides / Binding of a rabbit serum to looped peptides / Rabbit serum linear peptides / Rabbit serum looped peptides / Binding of a rabbit serum to linear peptides of protein N of SARS-CoV Urbani (Rabbit serum linear peptides) / Binding of a rabbit serum to looped/cyclic peptides of protein N of SARS-CoV Urbani (Rabbit serum looped peptides): unit not given here
# [2] = system: control sera (pooled serum of ten healthy LUMC hospital workers; commercial negative donor pooled serum from the Dutch bloodbank); assay type: binding, human; design: Binding of Control serum LUMC to linear peptides / Binding of Control serum Blood-bank to linear peptides / Binding of Control serum LUMC to looped peptides / Binding of Control Serum Blood-Bank to Looped peptides / Binding of Control serum LUMC to linear peptides of the protein M of SARS-CoV Urbani / Binding of Control serum Blood-bank to linear peptides of the protein M of SARS-CoV Urbani / Binding of Control serum LUMC to looped peptides of the protein M of SARS-CoV Urbani / Binding of Control Serum Blood-Bank to Looped peptides of the protein M of SARS-CoV Urbani: unit not given here
# [3] = system: antibodies in sera from SARS patients (sera 1a, 1b, 2, 6, 37, 62, London, SARS-yellow, SARS-green); assay type: binding, human; design: Binding of serum 6 to linear peptides of protein X1 of SARS-CoV Urbani / Binding of serum 37 to linear peptides of protein X1 of SARS-CoV Urbani / Binding of serum 6 to looped/cyclic peptide (PEPSCAN-ELISA) / Binding of serum 37 to looped/cyclic peptide (PEPSCAN-ELISA) / Binding of serum 37 to looped/cyclic peptides of protein X1 of SARS-CoV Urbani / Binding of serum 6 to linear peptides of protein X2 / Binding of serum 37 to linear peptides of protein X2 / Binding of serum 37 to looped/cyclic peptides of protein X2 of SARS-CoV Urbani / Binding of serum 6 to linear peptides of protein M of SARS-CoV Urbani / Binding of serum 37 to linear peptides of protein M of SARS-CoV Urbani / Binding of serum 6 to looped/cyclic peptides of protein M of SARS-CoV Urbani / Binding of serum 37 to looped/cyclic peptides of protein M of SARS-CoV Urbani / Binding of serum 6 to linear peptides of protein X3 of SARS-CoV Urbani / Binding of serum 37 to linear peptides of protein X3 of SARS-CoV Urbani / Binding of serum 37 to looped/cyclic peptides of protein X3 of SARS-CoV Urbani / Binding of serum 6 to linear peptides of protein X4 of SARS-CoV Urbani / Binding of serum 37 to linear peptides of protein X4 of SARS-CoV Urbani / Binding of serum 37 to looped/cyclic peptides of protein X4 of SARS-CoV Urbani / Binding of serum 6 to linear peptides of protein X5 of SARS-CoV Urbani / Binding of serum 37 to linear peptides of protein X5 of SARS-CoV Urbani / Binding of serum 37 to looped/cyclic peptides of protein X5 of SARS-CoV Urbani / Binding of serum 6 to linear peptides of protein N of SARS-CoV Urbani / Binding of serum 37 to linear peptides of protein N of SARS-CoV Urbani / Binding of serum 6 to linear peptide (PEPSCAN-ELISA) / Binding of serum 1a to looped/cyclic peptides of protein N of SARS-CoV Urbani / Binding of serum 1b to looped/cyclic peptides of protein N of SARS-CoV Urbani / Binding of serum 2 to looped/cyclic peptides of protein N of SARS-CoV Urbani / Binding of serum 6 to looped/cyclic peptides of protein N of SARS-CoV Urbani / Binding of serum 37 to looped/cyclic peptides of protein N of SARS-CoV Urbani / Binding of serum 62 to looped/cyclic peptides of protein N of SARS-CoV Urbani / Binding of serum London to looped/cyclic peptides of protein N of SARS-CoV Urbani / Binding of serum SARS-green to looped/cyclic peptides of protein N of SARS-CoV Urbani: unit not given here
sequence,measurement,setting,value
AGMEAQFLYLYALIY,Binding of a rabbit serum to linear peptides,[1],0.1
same,Binding of a rabbit serum to looped peptides,[1],0.6
same,Binding of Control Serum Blood-Bank to Looped peptides,[2],0.5
same,Binding of Control serum Blood-bank to linear peptides,[2],0.5
same,Binding of Control serum LUMC to linear peptides,[2],0.6
same,Binding of Control serum LUMC to looped peptides,[2],0.6
same,Binding of serum 1a to linear peptides of protein X1 of SARS-CoV Urbani,[3],0.7
same,Binding of serum 1a to looped/cyclic peptide (PEPSCAN-ELISA),[3],0.5
same,Binding of serum 1b to linear peptides of protein X1 of SARS-CoV Urbani,[3],0.6
same,Binding of serum 1b to looped/cyclic peptide (PEPSCAN-ELISA),[3],0.4
same,Binding of serum 2 to linear peptides of protein X1 of SARS-CoV Urbani,[3],0.6
same,Binding of serum 2 to looped/cyclic peptide (PEPSCAN-ELISA),[3],0.4
same,Binding of serum 6 to linear peptides of protein X1 of SARS-CoV Urbani,[3],0.4
same,Binding of serum 6 to looped/cyclic peptide (PEPSCAN-ELISA),[3],0.3
same,Binding of serum 37 to linear peptides of protein X1 of SARS-CoV Urbani,[3],0.5
same,Binding of serum 37 to looped/cyclic peptide (PEPSCAN-ELISA),[3],0.5
same,Binding of serum 62 to linear peptides of protein X1 of SARS-CoV Urbani,[3],0.4
same,Binding of serum 62 to looped/cyclic peptide (PEPSCAN-ELISA),[3],0.6
same,Binding of serum London to linear peptides of protein X1 of SARS-CoV Urbani,[3],0.2
same,Binding of serum London to looped/cyclic peptide (PEPSCAN-ELISA),[3],0.2
same,Binding of serum SARS-green to linear peptides of protein X1 of SARS-CoV Urbani,[3],0.1
same,Binding of serum SARS-green to looped/cyclic peptide (PEPSCAN-ELISA),[3],0.2
same,Binding of serum SARS-yellow to linear peptides of protein X1 of SARS-CoV Urbani,[3],0.2
same,Binding of serum SARS-yellow to looped/cyclic peptide (PEPSCAN-ELISA),[3],0.3
AIAMACIVGLMWLSY,Rabbit serum linear peptides,[1],0.4
same,Rabbit serum looped peptides,[1],0.0
same,Binding of Control Serum Blood-Bank to Looped peptides of the protein M of SARS-CoV Urbani,[2],0.6
same,Binding of Control serum Blood-bank to linear peptides of the protein M of SARS-CoV Urbani,[2],0.7
same,Binding of Control serum LUMC to linear peptides of the protein M of SARS-CoV Urbani,[2],0.3
same,Binding of Control serum LUMC to looped peptides of the protein M of SARS-CoV Urbani,[2],0.6
same,Binding of serum 1a to linear peptides of protein M of SARS-CoV Urbani,[3],0.7
same,Binding of serum 1a to looped/cyclic peptides of protein M of SARS-CoV Urbani,[3],0.5
same,Binding of serum 1b to linear peptides of protein M of SARS-CoV Urbani,[3],0.5
same,Binding of serum 1b to looped/cyclic peptides of protein M of SARS-CoV Urbani,[3],0.3
same,Binding of serum 2 to linear peptides of protein M of SARS-CoV Urbani,[3],0.6
same,Binding of serum 2 to looped/cyclic peptides of protein M of SARS-CoV Urbani,[3],0.4
same,Binding of serum 6 to linear peptides of protein M of SARS-CoV Urbani,[3],0.4
same,Binding of serum 6 to looped/cyclic peptides of protein M of SARS-CoV Urbani,[3],0.6
same,Binding of serum 37 to linear peptides of protein M of SARS-CoV Urbani,[3],0.7
same,Binding of serum 37 to looped/cyclic peptides of protein M of SARS-CoV Urbani,[3],0.5
same,Binding of serum 62 to linear peptides of protein M of SARS-CoV Urbani,[3],0.7
same,Binding of serum 62 to looped/cyclic peptides of protein M of SARS-CoV Urbani,[3],0.4
same,Binding of serum London to linear peptides of protein M of SARS-CoV Urbani,[3],0.4
same,Binding of serum London to looped/cyclic peptides of protein M of SARS-CoV Urbani,[3],0.2
same,Binding of serum SARS-green to linear peptides of protein M of SARS-CoV Urbani,[3],0.3
same,Binding of serum SARS-green to looped/cyclic peptides of protein M of SARS-CoV Urbani,[3],4.4
same,Binding of serum SARS-yellow to linear peptides of protein M of SARS-CoV Urbani,[3],0.1
same,Binding of serum SARS-yellow to looped/cyclic peptides of protein M of SARS-CoV Urbani,[3],0.8
ALGKVLPFHRWHTMV,Rabbit serum linear peptides,[1],0.6
same,Rabbit serum looped peptides,[1],0.1
same,Binding of Control Serum Blood-Bank to Looped peptides,[2],0.1
same,Binding of Control serum Blood-bank to linear peptides,[2],0.8
same,Binding of Control serum LUMC to linear peptides,[2],0.5
same,Binding of Control serum LUMC to looped peptides,[2],0.5
same,Binding of serum 1a to linear peptides of protein X5 of SARS-CoV Urbani,[3],0.9
same,Binding of serum 1a to looped/cyclic peptides of protein X5 of SARS-CoV Urbani,[3],0.4
same,Binding of serum 1b to linear peptides of protein X5 of SARS-CoV Urbani,[3],0.5
same,Binding of serum 1b to looped/cyclic peptides of protein X5 of SARS-CoV Urbani,[3],0.0
same,Binding of serum 2 to linear peptides of protein X5 of SARS-CoV Urbani,[3],0.7
same,Binding of serum 2 to looped/cyclic peptides of protein X5 of SARS-CoV Urbani,[3],0.6
same,Binding of serum 6 to linear peptides of protein X5 of SARS-CoV Urbani,[3],0.6
same,Binding of serum 6 to looped/cyclic peptides of protein X5 of SARS-CoV Urbani,[3],0.3
same,Binding of serum 37 to linear peptides of protein X5 of SARS-CoV Urbani,[3],0.6
same,Binding of serum 37 to looped/cyclic peptides of protein X5 of SARS-CoV Urbani,[3],0.5
same,Binding of serum 62 to linear peptides of protein X5 of SARS-CoV Urbani,[3],0.7
same,Binding of serum 62 to looped/cyclic peptides of protein X5 of SARS-CoV Urbani,[3],0.5
same,Binding of serum London to linear peptides of protein X5 of SARS-CoV Urbani,[3],0.7
same,Binding of serum London to looped/cyclic peptides of protein X5 of SARS-CoV Urbani,[3],0.2
same,Binding of serum SARS-green to linear peptides of protein X5 of SARS-CoV Urbani,[3],0.5
same,Binding of serum SARS-green to looped/cyclic peptides of protein X5 of SARS-CoV Urbani,[3],0.6
same,Binding of serum SARS-yellow to linear peptides of protein X5 of SARS-CoV Urbani,[3],0.2
same,Binding of serum SARS-yellow to looped/cyclic peptides of protein X5 of SARS-CoV Urbani,[3],0.1
ALQELLIQQWIQFMM,Binding of a rabbit serum to linear peptides,[1],0.2
same,Binding of a rabbit serum to looped peptides,[1],0.4
same,Binding of Control Serum Blood-Bank to Looped peptides,[2],0.7
same,Binding of Control serum Blood-bank to linear peptides,[2],0.5
same,Binding of Control serum LUMC to linear peptides,[2],0.4
same,Binding of Control serum LUMC to looped peptides,[2],0.7
same,Binding of serum 1a to linear peptides of protein X2,[3],0.7
same,Binding of serum 1a to looped/cyclic peptides of protein X2 of SARS-CoV Urbani,[3],0.7
same,Binding of serum 1b to linear peptides of protein X2,[3],0.6
same,Binding of serum 1b to looped/cyclic peptides of protein X2 of SARS-CoV Urbani,[3],0.5
same,Binding of serum 2 to linear peptides of protein X2,[3],0.4
same,Binding of serum 2 to looped/cyclic peptides of protein X2 of SARS-CoV Urbani,[3],0.4
same,Binding of serum 6 to linear peptides of protein X2,[3],0.4
same,Binding of serum 6 to looped/cyclic peptides of protein X2 of SARS-CoV Urbani,[3],0.2
same,Binding of serum 37 to linear peptides of protein X2,[3],0.6
same,Binding of serum 37 to looped/cyclic peptides of protein X2 of SARS-CoV Urbani,[3],0.5
same,Binding of serum 62 to linear peptides of protein X2,[3],0.6
same,Binding of serum 62 to looped/cyclic peptides of protein X2 of SARS-CoV Urbani,[3],0.7
same,Binding of serum London to linear peptides of protein X2,[3],0.5
same,Binding of serum London to looped/cyclic peptides of protein X2 of SARS-CoV Urbani,[3],0.2
same,Binding of serum SARS-green to linear peptides of protein X2,[3],0.7
same,Binding of serum SARS-green to looped/cyclic peptides of protein X2 of SARS-CoV Urbani,[3],0.4
same,Binding of serum SARS-yellow to linear peptides of protein X2,[3],0.4
same,Binding of serum SARS-yellow to looped/cyclic peptides of protein X2 of SARS-CoV Urbani,[3],0.5
